Test results reported in patent publication US20190269792A1, “NANOPARTICLE COMPOSITIONS COMPRISING CD38 AND METHODS OF USE THEREOF” (Washington University, priority 2016, published 2019).

Columns and labels:
MM cells [1] = assay: Anti-CD38 chitosan NPs uptake mechanism (endosome co-localization, uptake inhibitors, 4° C.); format: cell-based, human; conditions: 30 min pre-incubation with inhibitor (cytochalasin D 1 μM, chlorpromazine 2 μM, nystatin 0.5 μg/ml, EGA 2.5 μM), then 2 h NPs
Method: Endocytosis is critical to the uptake of NPs in order to allow toxic effects in cells. MM cells were plated on glass bottom 8 well chambers and allowed to adhere overnight. CellLight Early Endosomes-GFP BacMam 2.0 reagent (targeting rab5) was added to result in a final concentration of 30 particles per cells and allowed to incubate with the cells for 18-24 h. Cells were washed twice with PBS and incubated with AF633 anti-CD38 chitosan NPs for 24 h. Cells were again washed twice with PBS and allowed to stay in phenol red free medium for imaging live under culture conditions of 37° C. and 5% CO2 at specified time points using FV1000 confocal microscope. To understand the process of internalization of anti-CD38 chitosan NPs, MM cells were pre-treated with inhibitors of macropinocytosis and phagocytosis (cytochalasin D), clathrin-mediated endocytosis (chlorpromazine), caveolae-mediated endocytosis (nystatin), or late endocytosis (EGA), prior to exposure to anti-CD38 chitosan NPs. […] MM cells (1×10^6 cell/ml) were pre-incubated at 37° C. with no inhibitor (Ctrl), cytochalasin D 1 μM, chlorpromazine 2 μM, nystatin 0.5 μg/ml, and EGA 2.5 μM or at 4° C. as control of the active uptake for 30 min. Cells were washed with PBS and incubated with AF633 anti-CD38 chitosan NPs for 2 h. Then, cells were washed and analyzed by flow cytometry for the fluorescence intensity of AF633.

MM cells [2] = assay: Effect of macropinocytosis and endocytosis inhibitors on survival of MM cells by MTT; format: cell-based; conditions: pre-incubation at 37° C. for 30 min; cytochalasin D 1 μM, chlorpromazine 2 μM, nystatin 0.5 μg/ml, EGA 2.5 μM
[3] = test system: MM.1S cells co-culture with MM-derived MSP-1 stromal cell line; assay: Cell adhesion-mediated drug resistance, co-culture with MSP-1 stroma; format: cell-based, human; conditions: BTZ 5 nM or equivalent, 48 h
Method: In addition, cell proliferation assay of MM.1S cells co-culture with or without MM-derived MSP-1 stromal cell line with vehicle (control), BTZ as a free drug (5 nM), empty chitosan NPs, non-targeted chitosan NPs loaded with BTZ equivalent amounts to 5 nM, and anti-CD38 chitosan NPs loaded with BTZ equivalent amounts to 5 nM for 48 h was analyzed.

proteasome = assay: Proteasome activity assay (AMC-tagged peptide substrate) in extracts of treated MM cells; format: cell-based, human; conditions: for effect of inhibition of macropinocytosis or endocytosis pathways on proteasome activity: free drug 5 nM with uptake inhibitors
Method: Cell extracts were prepared in NP-40 lysis buffer from control and treated cells (BTZ as a free drug (5 nM), empty chitosan NPs, non-targeted chitosan NPs loaded with BTZ equivalent amounts to 5 nM, and anti-CD38 NPs loaded with BTZ equivalent amounts to 5 nM) retrieved after 2 h treatment with BTZ. Proteasome activity was determined using the AMC-tagged peptide substrate in a Proteasome Activity Assay Kit (abcam, Cambridge, Mass., USA) according to the manufacturer's protocol. Fluorescence was determined in a SpectraMax i3 Multi-Mode Detection Platform (Molecular Devices, Sunnyvale, Calif., USA) and proteasome activity was expressed as the amount of proteasome which generates 1.0 nmol of AMC per minute at 37° C.
Proteasome activity inhibition was also measured in combination with inhibitors of macropinocytosis and phagocytosis (cytochalasin D), clathrin-mediated endocytosis (chlorpromazine), caveolae-mediated endocytosis (nystatin), or late endocytosis (EGA), prior to exposure to anti-CD38 chitosan NPs loaded with BTZ equivalent amounts to 5 nM. MM cells were pre-incubated at 37° C. with no inhibitor (Ctrl), cytochalasin D 1 μM, chlorpromazine 2 μM, nystatin 0.5 μg/ml, and EGA 2.5 μM for 30 min. Cells were washed with PBS and incubated with anti-CD38 chitosan NPs loaded with BTZ equivalent amounts to 5 nM, then proteasome Activity Assay Kit was followed as in the previous experiment.

[4] = test system: MM cell lines (MM.1S, H929, and RPMI8826); assay: Cell viability of MM cells by MTT; format: cell-based, human; conditions: BTZ 5 nM or equivalent, 48 h
Method: MM cell lines (MM.1S, H929, and RPMI8826) and PB MNCs were cultured with vehicle (control), BTZ as a free drug (5 nM), empty NPs, non-targeted NPs loaded with BTZ equivalent amounts to 5 nM, and anti-CD38 NPs loaded with BTZ equivalent amounts to 5 nM for 48 h. Cell viability was assessed using MTT solution followed by absorbance reading at 570 nm using a spectrophotometer as previously described [19]. Briefly, the MTT solution was added to the cells 48 h after starting the treatment, and 2-4 h later the stop solution was added.

[5] = test system: MM cells cultured in normoxic (21% O2) or hypoxic (1% O2) conditions; assay: Hypoxia-mediated drug resistance; format: cell-based, human; conditions: BTZ 5 nM or equivalent, 48 h
Method: Furthermore, the effect of vehicle (control), BTZ as a free drug (5 nM), empty chitosan NPs, non-targeted chitosan NPs loaded with BTZ equivalent amounts to 5 nM, and anti-CD38 chitosan NPs loaded with BTZ equivalent amounts to 5 nM on proliferation of MM cells cultured in normoxic (21% O2) or hypoxic (1% O2) conditions for 48 h was measured.

[6] = Side effects in vivo (weight loss, hair loss, histological tissue damage); parameters: species or system SCID mice; conditions: BTZ 1 mg/kg once a week
Method: (§1) MM1s-GFP-Luc cells were injected into forty female, 7-week old SCID mice i.v. at the concentration of 2×10^6 cells per mouse and tumor progression was evaluated using BLI. After 4 weeks, tumor bearing mice were randomized into 4 groups of 10 animals each and treated with: (i) vehicle, (ii) BTZ as a free drug (1 mg/kg once a week), (iii) non-targeted NPs loaded with BTZ equivalent amounts to 1 mg/kg (once a week), (iv) and anti-CD38 NPs loaded with BTZ equivalent amounts to 1 mg/kg (once a week). Tumor progression was followed in the 4 groups twice a week (for 5 weeks) by BLI; moreover the survival, weight, and general health of the animals was followed. In addition, 3 mice were taken from each group 3 weeks after the beginning of the treatment, and specimens of the BM, blood smear, spleen, liver, kidney, brain, spinal-cord and intestine were fixed and pathologically evaluated for treatment efficacy and histological tissue damage.

H929 cells [7] = assay: Apoptosis by Annexin V / PI flow cytometry; format: cell-based, human; conditions: BTZ 5 nM or equivalent, 48 h
Method: H929 cells (1×10^6 cell/ml) were cultured with vehicle (control), BTZ as a free drug (5 nM), empty chitosan NPs, non-targeted chitosan NPs loaded with BTZ equivalent amounts to 5 nM, and anti-CD38 chitosan NPs loaded with BTZ equivalent amounts to 5 nM for 48 h, and apoptosis was analyzed as previously described. Cells were washed and resuspended in 1× Annexin binding buffer, incubated with Annexin V for 15 minutes followed by staining with PI for extra 15 minutes, 1× binding buffer was added, and the cells were analyzed with flow cytometry.

PB MNCs = assay: Cell viability of normal PB MNCs by MTT; format: cell-based, human; conditions: BTZ 5 nM or equivalent, 48 h
Method: MM cell lines (MM.1S, H929, and RPMI8826) and PB MNCs were cultured with vehicle (control), BTZ as a free drug (5 nM), empty NPs, non-targeted NPs loaded with BTZ equivalent amounts to 5 nM, and anti-CD38 NPs loaded with BTZ equivalent amounts to 5 nM for 48 h. Cell viability was assessed using MTT solution followed by absorbance reading at 570 nm using a spectrophotometer as previously described. Briefly, the MTT solution was added to the cells 48 h after starting the treatment, and 2-4 h later the stop solution was added.

MM.1S cells = assay: Boron cellular accumulation by ICP-OES; format: cell-based, human; conditions: 100 nM, 1.5 h
Method: MM.1S cells (40×10^6 cell/ml) were cultured with vehicle (control), BTZ as a free drug (100 nM), and anti-CD38 chitosan NPs loaded with BTZ equivalent amounts to 100 nM for 1.5 h. After the treatment the cells were spun down, washed, and cell pellet was digested in nitric acid. After dilution with deionized water, samples were microwave digested and then analyzed by ICP-OES for boron content.

MM1s-GFP-Luc cells = assay: MM tumor progression and survival in vivo; parameters: species or system SCID mice; conditions: BTZ 1 mg/kg once a week
Method: as §1

H929 cells [8] = assay: Cell cycle by propidium iodide flow cytometry; format: cell-based, human; conditions: BTZ 5 nM or equivalent, 48 h
Method: Briefly, cells were washed, fixed with 70% ethanol, and washed again with PBS. RNA was degraded by incubation in RNAase for 30 minutes at 37° C., and the DNA was stained with PI solution for 10 minutes, then cells were analyzed by flow cytometry.

MM.1S in 3DTEBM cultures = assay: Survival of MM cells in 3D tissue engineered bone marrow (3DTEBM); format: cell-based, human; conditions: BTZ 10 nM or equivalent, 48 h
Method: MM.1S (pre-labeled with Invitrogen cell tracers DiO (10 μg/ml) for 1 h) were cultured in relevant three-dimensional tissue engineered bone marrow (3DTEBM) cultures through crosslinking of fibrinogen as previously described. The effect of vehicle (control), BTZ as a free drug (10 nM), empty chitosan NPs, non-targeted chitosan NPs loaded with BTZ equivalent amounts to 10 nM, and anti-CD38 chitosan NPs loaded with BTZ equivalent amounts to 10 nM for 48 h was analyzed by flow cytometry. Higher BTZ doses (10 nM) are used in the 3DTEBM based on the known drug resistance of the cells in 3DTEBM cultures. Cell proliferation assays were performed by digestion of 3DTEBM cultures with type I collagenase (25 mg/ml for 2-3 h at 37° C.), followed by flow cytometry analysis using MACSQuant Analyzer (Miltenyi Biotec), and the data was analyzed using FlowJo program v10 (Ashland, Oreg.). Moreover, 3DTEBM cultures treated with AF633 anti-CD38 chitosan NPs loaded with BTZ equivalent amounts to 10 nM were imaged to determine NPs distribution by confocal microscopy after 24 h incubation.

Cc1cccc(C)c1NC(=O)N/N=C/c1ccc(Br)cc1 [EGA]
decrease of the uptake of the anti-CD38 NPs (MM cells [1]): about 25%
effect on cell survival (MM cells [2]): no effect on cell survival

CN(C)CCCN1c2ccccc2Sc2ccc(Cl)cc21 [chlorpromazine]
decrease of the uptake of the anti-CD38 NPs (MM cells [1]): about 25%

C=C1[C@@H](C)[C@H]2[C@H](Cc3ccccc3)NC(=O)[C@]23[C@H](OC(C)=O)/C=C/[C@@](C)(O)C(=O)[C@@H](C)C/C=C/[C@H]3[C@@H]1O [cytochalasin D]
decrease of the uptake of the anti-CD38 NPs (MM cells [1]): did not affect
effect on cell survival (MM cells [2]): no effect on cell survival

CC(C)C[C@H](NC(=O)[C@H](Cc1ccccc1)NC(=O)c1cnccn1)B(O)O [free BTZ, bortezomib]
cell adhesion-mediated drug resistance (stroma co-culture versus mono-culture) [3]: induced resistance
proteasome activity inhibition (proteasome; BTZ 5 nM or equivalent, 2 h, MM cells (Experiment 7)): 50%
inhibition in the proteasome activity (proteasome; BTZ 5 nM or equivalent, without inhibition of the uptake routs (Experiment 8)): about 40%
effect of inhibition of macropinocytosis or endocytosis pathways on proteasome activity (proteasome): led to any significant effect
effect of inhibition of macropinocytosis or endocytosis pathways on proteasome activity (proteasome; listed as BTZ): did not induce any change
killing of MM cells [4]: 20%
hypoxia-mediated drug resistance (1% O2 versus 21% O2) [5]: induced resistance
hair loss compared to the vehicle-treated group [6]: significant hair loss
early apoptosis, late apoptosis and cell death (H929 cells [7]): induced increase early apoptosis and no effect on late apoptosis and death
effect on survival of PB MNCs (PB MNCs): no effect
accumulation of BTZ (boron content) in cells versus control (MM.1S cells): very similar to the levels measured in control
day by which all the group died (MM1s-GFP-Luc cells): ≤ 29 days
tumor size by BLI compared to vehicle treatment (MM1s-GFP-Luc cells; 5 weeks): efficacious in reducing tumor size
effect on cell cycle (H929 cells [8]): induced G0-G1 arrest
killing of MM cells in the 3DTEBM (MM.1S in 3DTEBM cultures): 8%

C[C@@H]1[C@H](O)[C@@H](C)/C=C/C=C/CC/C=C/C=C/C=C/C=C/C(O[C@H]2O[C@H](C)[C@@H](O)[C@H](N)[C@@H]2O)CC2O[C@](O)(CC(O)C(O)CCC(O)CC(O)CC(O)CC(=O)O[C@H]1C)CC(O)C2C(=O)O (stereo partly shown) [nystatin]
decrease of the uptake of the anti-CD38 NPs (MM cells [1]): about 25%
effect on cell survival (MM cells [2]): no effect on cell survival
